Values after ≈ are worked out from the molar mass of the structure shown.
Experiments:
Histone deacetylase 1 = Histone deacetylase 1 (Homo sapiens, UniProt Q13547); experiment: Inhibition of full-length recombinant human HDAC1 (1 to 482 residues) expressed in baculovirus infected insect cells using […] as substrate incubated for 30 mins by fluorescence based analysis; set-up: species or system Insect cell
HL-60 = experiment: Antiproliferative activity against human HL-60 cells incubated for 48 hrs by CCK8 assay; format: functional, cell-based; settings: HL-60, 48 h
Histone deacetylase = experiment: Inhibition of total HDAC in human HUVEC cells using Boc-Lys(Ac)-AMC as substrate preincubated for 12 hrs followed by substrate addition measured after 6 hrs by microtiter plate reader analysis; format: cell-based
K562 = experiment: Antiproliferative activity against human K562 cells incubated for 48 hrs by CCK8 assay; format: functional, cell-based; settings: K562, 48 h
HEL = experiment: Antiproliferative activity against human HEL cells incubated for 48 hrs by CCK8 assay; format: functional, cell-based
Candida albicans [1] = experiment: Antifungal activity against Candida albicans SC5314 assessed as fungal growth inhibition incubated for 24 hrs by broth dilution method; format: functional
Cryptococcus neoformans = experiment: Antifungal activity against Cryptococcus neoformans H99 assessed as fungal growth inhibition incubated for 24 hrs by broth dilution method; format: functional
Candida albicans [2] = experiment: microbe, parasite or virus in culture; format: functional; settings: 0304103
Description: Antifungal activity against Candida albicans 0304103 assessed as microbial growth inhibition

Candida albicans [3] = experiment: microbe, parasite or virus in culture; format: functional; settings: 0304103, time 24 hrs
Description: Synergetic antifungal activity against Candida albicans 0304103 assessed as microbial growth inhibition incubated for 24 hrs in the presence of fluconazole by checkerboard microdilution method

Candida albicans [4] = format: functional, 0304103; settings: time 24 hrs
Description: Synergetic antifungal activity against Candida albicans 0304103 assessed as fractional inhibitory concentration index incubated for 24 hrs in the presence of fluconazole by checkerboard microdilution method

in vitro = settings: human, HUVEC cells
Description: Cytotoxicity against HUVECs assessed as inhibition of cell growth incubated for 48 hrs by CCK8 assay

Histone deacetylase 1, sequence (Q13547 whole entry, the tested form may be a part): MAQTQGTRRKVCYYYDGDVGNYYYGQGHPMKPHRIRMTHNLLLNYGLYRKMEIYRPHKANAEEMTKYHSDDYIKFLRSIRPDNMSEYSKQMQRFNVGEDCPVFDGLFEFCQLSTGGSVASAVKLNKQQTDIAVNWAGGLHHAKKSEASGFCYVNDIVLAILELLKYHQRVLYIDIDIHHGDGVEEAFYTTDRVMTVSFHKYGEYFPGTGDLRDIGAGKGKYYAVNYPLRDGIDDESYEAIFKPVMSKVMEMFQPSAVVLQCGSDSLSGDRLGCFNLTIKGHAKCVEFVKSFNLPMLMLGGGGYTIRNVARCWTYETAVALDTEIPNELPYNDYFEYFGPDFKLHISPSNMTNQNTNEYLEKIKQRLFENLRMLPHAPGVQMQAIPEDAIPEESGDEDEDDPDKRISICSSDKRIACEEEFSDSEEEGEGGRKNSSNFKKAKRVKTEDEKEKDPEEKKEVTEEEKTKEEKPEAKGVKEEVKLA

SMILES | IC50 (Histone deacetylase 1) [µM] | IC50 (HL-60) [µM] | IC50 (Histone deacetylase) [µM] | IC50 (K562) [µM] | IC50 (HEL) [µM] | MIC80 (Candida albicans [1]) [µg/mL] | MIC80 (Cryptococcus neoformans) [µg/mL] | MIC80 (Candida albicans [2]) [µg/mL] | MIC80 (Candida albicans [3]) [µg/mL] | fractional inhibitory concentration index (FICI) (Candida albicans [4]) | IC50 at 48 h (in vitro) [µM]
Cc1nnc2n1-c1ccc(Cl)cc1C(c1ccccc1Cl)=N[C@H]2CC(=O)Nc1ccc(/C=C/C(=O)NO)cc1 | 1.3 | 4.2 | 0.035 | 3.1 | 8.3 | > 64 | 8 (≈ 14.2 µM) | > 64 | 4 (≈ 7.12 µM) | 0.07 | 7.3
Cc1sc2c(c1C)C(c1ccc(Cl)cc1)=N[C@@H](CC(=O)OC(C)(C)C)c1nnc(C)n1-2 |  | 0.15 |  | 1.4 | 0.069 | > 64 | > 64 | > 64 | 64 (≈ 140 µM) | >2 | 0.58
Cc1nnc2n1-c1sc3c(c1C(c1ccc(Cl)cc1)=N[C@H]2CC(=O)Nc1ccc(C(=O)NO)cc1)CCCC3 | 0.72 | 0.31 | 0.047 | 0.41 | 0.29 | > 64 | 4 (≈ 7.13 µM) | > 64 | 4 (≈ 7.13 µM) | 0.078 | 2.6
Cc1nnc2n1-c1ccc(Cl)cc1C(c1ccccc1Cl)=N[C@H]2CC(=O)NCc1ccc(C(=O)NO)cc1 | 1.9 | > 10 | 3.4 | > 10 | > 10 | > 64 | 16 (≈ 29.1 µM) | > 64 | 8 (≈ 14.6 µM) | 0.16 | 48
Cc1nnc2n1-c1ccc(Cl)cc1C(c1ccccc1Cl)=N[C@H]2CC(=O)Nc1ccc(CC(=O)NO)cc1 | 1.1 | 9.7 | 4.4 | 8 | > 10 | > 64 | 16 (≈ 29.1 µM) | > 64 | 8 (≈ 14.6 µM) | 0.14 | 19
Cc1ccc(C2=N[C@@H](CC(=O)Nc3ccc(CC(=O)NO)cc3)c3nnc(C)n3-c3ccccc32)cc1 | 2.9 | 5.1 | 3.8 | > 10 | > 10 | > 64 | 32 (≈ 64.7 µM) | > 64 | 8 (≈ 16.2 µM) | 0.14 | 33
Cc1nnc2n1-c1ccccc1C(c1ccc(Cl)cc1)=N[C@H]2CC(=O)Nc1ccc(CC(=O)NO)cc1 | 2.4 | 1.1 | 2.8 | > 10 | > 10 | > 64 | 32 (≈ 62.1 µM) | > 64 | 32 (≈ 62.1 µM) | 0.75 | 19
Cc1nnc2n1-c1ccccc1C(c1ccccc1)=N[C@H]2CC(=O)NCc1ccc(C(=O)NO)cc1 | 0.25 | 5.7 | 2.8 | > 10 | > 10 | > 64 | 32 (≈ 66.6 µM) | > 64 | 8 (≈ 16.6 µM) | 0.14 | 17
Cc1ccc(C2=N[C@@H](CC(=O)Nc3ccc(C(=O)NO)cc3)c3nnc(C)n3-c3ccccc32)cc1 | 51 | 0.34 | 0.13 | > 10 | 0.39 | > 64 | 32 (≈ 66.6 µM) | > 64 | 4 (≈ 8.32 µM) | 0.078 | 2.8
Cc1nnc2n1-c1sc3c(c1C(c1ccc(Cl)cc1)=N[C@H]2CC(=O)Nc1ccc(/C=C/C(=O)NO)cc1)CCCC3 | 0.79 | 5.1 | 0.15 | 2.4 | > 10 | > 64 | 4 (≈ 6.81 µM) | > 64 | 4 (≈ 6.81 µM) | 0.066 | 4.7
Cc1nnc2n1-c1ccccc1C(c1ccccc1)=N[C@H]2CC(=O)Nc1ccc(C(=O)NO)cc1 | 0.062 | 1.7 | 0.065 | 3.3 | > 10 | > 64 | 16 (≈ 34.3 µM) | > 64 | 4 (≈ 8.57 µM) | 0.094 | 25
Cc1ccc(C2=N[C@@H](CC(=O)NCc3ccc(C(=O)NO)cc3)c3nnc(C)n3-c3ccccc32)cc1 | 0.89 | > 10 | 5.8 | > 10 | 7 | > 64 | 32 (≈ 64.7 µM) | > 64 | 8 (≈ 16.2 µM) | 0.14 | 20
Cc1ccc(C2=N[C@@H](CC(=O)Nc3ccc(/C=C/C(=O)NO)cc3)c3nnc(C)n3-c3ccccc32)cc1 | 0.18 | 4.2 | 0.63 | 1.4 | 9 | > 64 | 8 (≈ 15.8 µM) | > 64 | 4 (≈ 7.9 µM) | 0.094 | 14
Cc1nnc2n1-c1ccccc1C(c1ccccc1)=N[C@H]2CC(=O)Nc1ccc(CC(=O)NO)cc1 | 0.73 | 4.4 | 6.5 | > 10 | > 10 | > 64 | 32 (≈ 66.6 µM) | > 64 | 8 (≈ 16.6 µM) | 0.19 | 24
Cc1nnc2n1-c1ccccc1C(c1ccc(Cl)cc1)=N[C@H]2CC(=O)Nc1ccc(/C=C/C(=O)NO)cc1 | 0.63 | 4.7 | 0.42 | 1.5 | > 10 | > 64 | 8 (≈ 15.2 µM) | > 64 | 4 (≈ 7.59 µM) | 0.066 | 8.1
Cc1nnc2n1-c1sc3c(c1C(c1ccc(Cl)cc1)=N[C@H]2CC(=O)Nc1ccc(CC(=O)NO)cc1)CCCC3 | 1.4 | 1.1 | 2.2 | > 10 | 4 | > 64 | 16 (≈ 27.8 µM) | > 64 | 4 (≈ 6.96 µM) | 0.07 | 5.9
Cc1nnc2n1-c1ccccc1C(c1ccc(Cl)cc1)=N[C@H]2CC(=O)NCc1ccc(C(=O)NO)cc1 | 0.56 | 7.1 | 2.7 | > 10 | > 10 | > 64 | 32 (≈ 62.1 µM) | > 64 | 16 (≈ 31.1 µM) | 0.28 | 23
Cc1nnc2n1-c1ccccc1C(c1ccccc1)=N[C@H]2CC(=O)Nc1ccc(/C=C/C(=O)NO)cc1 | 0.1 | 7 | 0.016 | 1.9 | > 10 | > 64 | 8 (≈ 16.2 µM) | > 64 | 4 (≈ 8.12 µM) | 0.094 | 14
Cc1nnc2n1-c1ccccc1C(c1ccc(Cl)cc1)=N[C@H]2CC(=O)Nc1ccc(C(=O)NO)cc1 | 0.11 | 0.87 | 0.16 | > 10 | > 10 | > 64 | 32 (≈ 63.9 µM) | > 64 | 16 (≈ 31.9 µM) | 31 | 34

— ChEMBL document CHEMBL5331104, “Discovery of BRD4-HDAC Dual Inhibitors with Improved Fungal Selectivity and Potent Synergistic Antifungal Activity against Fluconazole-Resistant Candida albicans” (J Med Chem, 2023)
